Values of other authors as cited in patent publication US20050065128A1, “2-alkylidene-19-nor-vitamin D derivatives for the treatment of hypogonadism or andropause” (Pfizer Inc, priority 2003, published 2005).
Like-named read-outs stand apart in the source and are kept apart here.

Experiments:
HL-60 cells = conditions: method of Ostrem et al.
[1] = test system: Intestinal Calcium Transport; conditions: intraperitoneal, male weanling rats on vitamin D-deficient low-calcium diet, 24 h after last dose, mean ± SEM
[2] = test system: Serum Calcium (Bone Calcium Mobilization); conditions: for Serum Calcium (mg/100 ml): intraperitoneal, male weanling rats on vitamin D-deficient low-calcium diet, 24 h after last dose, mean ± SEM; for activity on bone calcium mobilization (serum calcium) relative to 1,25-(OH)2D3 (native hormone): chronic 7-day dosing in rats, fold of the native hormone

Compound	inducing differentiation of HL-60 cells to the monocyte (HL-60 cells)	Intestinal Calcium Transport (S/M) ([1]; 130 pmol/day for 7 days)	Intestinal Calcium Transport (S/M) ([1]; 260 pmol/day for 7 days)	Serum Calcium (mg/100 ml) ([2]; 130 pmol/day for 7 days)	Serum Calcium (mg/100 ml) ([2]; 260 pmol/day for 7 days)	activity on bone calcium mobilization (serum calcium) relative to 1,25-(OH)2D3 (native hormone) [2]
C=C1[C@H](O)CC(=C/C=C2\CCC[C@]3(C)[C@@H]([C@H](C)CCCC(C)(C)O)CC[C@@H]23)C[C@H]1O [2-Methylene-19-Nor-1,25-(OH)2D3, 1α,25-dihydroxy-2-methylene-19-nor-vitamin D3]	activity similar to 1,25-(OH)2D3	no intestinal calcium transport activity	no intestinal calcium transport activity	extremely strong bone calcium mobilization	extremely strong bone calcium mobilization	10-100 times
C=C1[C@H](O)CC(=C/C=C2\CCC[C@]3(C)[C@@H]([C@@H](C)CCCC(C)(C)O)CC[C@@H]23)C[C@H]1O [2-Methylene-19-Nor-20S-1,25-(OH)2D3, (20S)-1α,25-dihydroxy-2-methylene-19-nor-vitamin D3]	extremely potent	no significant change	no significant change			at least 10 times
